Laboratory results published in PubChem BioAssay AID1963423 (Molecular Pharmacology Branch, DTP, NCI, 2024).

System: 439559-082-T-J2-PDC complex spheroid growth
Assay: Anticancer human tumor 439559-082-T-J2-PDC patient-derived colon adenocarcinoma cell line growth inhibition [Asc]
Conditions: for IC50: curve of first compound; for viability, T/C: stronger effect = lower value
Method in brief: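 Tumor cells were grown as complex spheroids with human endothelial cells (HUVEC) and human mesenchymal stem cells as stroma. Agents were tested alone and in combination, in half-log steps down from the clinical Cmax, or from 10 microM where Cmax was unknown.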

[1] = second compound 0.1 µM, first compound 0.00316 µM
[2] = second compound 0.1 µM, first compound 0.01 µM
[3] = second compound 0.1 µM, first compound 0.0316 µM
[4] = second compound 0.1 µM, first compound 0.1 µM
[5] = second compound 0.1 µM, first compound 0.316 µM
[6] = second compound 0.1 µM, first compound 1 µM
[7] = second compound 0.316 µM, first compound 0.00316 µM
[8] = second compound 0.316 µM, first compound 0.01 µM
[9] = second compound 0.316 µM, first compound 0.0316 µM
[10] = second compound 0.316 µM, first compound 0.1 µM
[11] = second compound 0.316 µM, first compound 0.316 µM
[12] = second compound 0.316 µM, first compound 1 µM
[13] = second compound 1 µM, first compound 0.00316 µM
[14] = second compound 1 µM, first compound 0.01 µM
[15] = second compound 1 µM, first compound 0.0316 µM
[16] = second compound 1 µM, first compound 0.1 µM
[17] = second compound 1 µM, first compound 0.316 µM
[18] = second compound 1 µM, first compound 1 µM
[19] = second compound 3.16 µM, first compound 0.00316 µM
[20] = second compound 3.16 µM, first compound 0.01 µM
[21] = second compound 3.16 µM, first compound 0.0316 µM
[22] = second compound 3.16 µM, first compound 0.1 µM
[23] = second compound 3.16 µM, first compound 0.316 µM
[24] = second compound 3.16 µM, first compound 1 µM
[25] = second compound 10 µM, first compound 0.00316 µM
[26] = second compound 10 µM, first compound 0.01 µM
[27] = second compound 10 µM, first compound 0.0316 µM
[28] = second compound 10 µM, first compound 0.1 µM
[29] = second compound 10 µM, first compound 0.316 µM
[30] = second compound 10 µM, first compound 1 µM
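Further: spheroids exposed to agents for 7 days starting day 3 after seeding.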
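Wherever viability, T/C is given: percent of DMSO vehicle control viability with 100% = vehicle.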

CCN1CCN(Cc2ccc(Nc3ncc(F)c(-c4cc(F)c5nc(C)n(C(C)C)c5c4)n3)nc2)CC1 + Cc1c(S(C)(=O)=O)c(-c2cc(F)cc(N3CCN(c4ccc(NS(=O)(=O)c5ccc(NC(CCN6CCC(C(=O)OCCCP(=O)(O)O)CC6)CSc6ccccc6)c(S(=O)(=O)C(F)(F)F)c5)cc4)CC3)c2)c(-c2ccc(Cl)cc2)n1C(C)C
IC50 (second compound 0.1 µM): > 1 µM | IC50 (second compound 0.316 µM): > 1 µM | IC50 (second compound 1 µM): > 1 µM | IC50 (second compound 3.16 µM): > 1 µM | IC50 (second compound 10 µM): > 1 µM | viability, T/C [1]: 93.5% | viability, T/C [2]: 107% | viability, T/C [3]: 94.2% | viability, T/C [4]: 85.3% | viability, T/C [5]: 92.8% | viability, T/C [6]: 80.5% | viability, T/C [7]: 101% | viability, T/C [8]: 102% | viability, T/C [9]: 103% | viability, T/C [10]: 78.5% | viability, T/C [11]: 84.2% | viability, T/C [12]: 73.4% | viability, T/C [13]: 96.5% | viability, T/C [14]: 93.5% | viability, T/C [15]: 94.3% | viability, T/C [16]: 80.5% | viability, T/C [17]: 80% | viability, T/C [18]: 70% | viability, T/C [19]: 85.1% | viability, T/C [20]: 92.5% | viability, T/C [21]: 98.9% | viability, T/C [22]: 72.4% | viability, T/C [23]: 69.4% | viability, T/C [24]: 68.6% | viability, T/C [25]: 82.4% | viability, T/C [26]: 81.7% | viability, T/C [27]: 83.2% | viability, T/C [28]: 63.5% | viability, T/C [29]: 61.2% | viability, T/C [30]: 50.1%

O=C(c1ccc(F)c(F)c1Nc1ccc(I)cc1F)N1CC(O)([C@@H]2CCCCN2)C1 + Cc1c(S(C)(=O)=O)c(-c2cc(F)cc(N3CCN(c4ccc(NS(=O)(=O)c5ccc(NC(CCN6CCC(C(=O)OCCCP(=O)(O)O)CC6)CSc6ccccc6)c(S(=O)(=O)C(F)(F)F)c5)cc4)CC3)c2)c(-c2ccc(Cl)cc2)n1C(C)C
IC50 (second compound 0.1 µM): 0.201 µM | IC50 (second compound 0.316 µM): 0.188 µM | IC50 (second compound 1 µM): 0.141 µM | IC50 (second compound 3.16 µM): 0.104 µM | IC50 (second compound 10 µM): 0.0566 µM | viability, T/C [1]: 96.7% | viability, T/C [2]: 105% | viability, T/C [3]: 76% | viability, T/C [4]: 57.5% | viability, T/C [5]: 47.7% | viability, T/C [6]: 16.9% | viability, T/C [7]: 96% | viability, T/C [8]: 103% | viability, T/C [9]: 79.8% | viability, T/C [10]: 59.5% | viability, T/C [11]: 42.6% | viability, T/C [12]: 11.5% | viability, T/C [13]: 88.8% | viability, T/C [14]: 96.1% | viability, T/C [15]: 84.6% | viability, T/C [16]: 48.5% | viability, T/C [17]: 38.2% | viability, T/C [18]: 7.87% | viability, T/C [19]: 91.6% | viability, T/C [20]: 90.9% | viability, T/C [21]: 76.3% | viability, T/C [22]: 45.4% | viability, T/C [23]: 29.9% | viability, T/C [24]: 4.98% | viability, T/C [25]: 76.5% | viability, T/C [26]: 68.7% | viability, T/C [27]: 68.3% | viability, T/C [28]: 32.6% | viability, T/C [29]: 19.1% | viability, T/C [30]: 2.9%
